Columns and labels:
[1] = system: Rat2 fibroblasts stably transformed with v-Src/Hu c-Src fusion gene; assay: Anchorage independent Src-transformed fibroblast proliferation assay; type: cell-based, rat; conditions: for IC50: Rat2, 120 h, suspension growth, MTS readout Day 5, read-out: Src cells IC50; for inhibition at 10 µM: read-out: Src cells % inh at 10 μM
Experimental: Anchorage Independent Src-Transformed Fibroblast Proliferation Assay Rat2 fibroblasts stably transformed with a plasmid containing a CMV promotor controlled v-Src/Hu c-Src fusion gene in which the catalytic domain of human c-Src was inserted in place of the v-Src catalytic domain in the v-Src gene are used for the measurement of src dependent suspension growth. […] Multiple entries for a given compound indicate that it was tested multiple times.

[2] = Rattus norvegicus, Rat2, Table 1

SMILES	melting point [°C]	IC50 ([1]; Rattus norvegicus, Table 1) [µM]	other results
COc1cc(Nc2c(C#N)cnc3sc(-c4ccc(CN5CCOCC5)cc4)cc23)c(Cl)cc1Cl	106 to 108		
COc1cc(Nc2c(C#N)cnc3cc(C#CCN4CCN(C)CC4)sc23)c(Cl)cc1Cl	172 to 173		
COc1cc(Nc2c(C#N)cnc3cc(I)sc23)c(Cl)cc1Cl [Example 4, 7-[(2,4-Dichloro-5-methoxyphenyl)amino]-2-iodothieno[3,2-b]pyridine-6-carbonitrile]	233 to 234	3.1	
COc1cc(Nc2c(C#N)cnc3sccc23)c(Cl)cc1Cl [Example 5, 4-[(2,4-Dichloro-5-methoxyphenyl)amino]thieno[2,3-b]pyridine-5-carbonitrile]	197 to 199	5.6	
Cn1ccnc1Sc1ccc(Nc2c(C#N)cnc3sccc23)cc1Cl [Example 6, 4-[(3-Chloro-4-[(1-methyl-1H-imidazol-2-yl)thio]phenyl)amino]thieno[2,3-b]pyridine-5-carbonitrile]	> 240		inhibition at 100 µM ([1]; Rattus norvegicus, Rat2, Table 1, at 100 μM, read-out: Src cells % inh at 100 μM): 3%
COc1cc(Nc2c(C#N)cnc3sc(I)cc23)c(Cl)cc1Cl [Example 7, 4-[(2,4-Dichloro-5-methoxyphenyl)amino]-2-iodothieno[2,3-b]pyridine-5-carbonitrile]	231 to 233		inhibition at 10 µM [1, 2]: 31%
COc1cc(Nc2c(C#N)cnc3sc(C)cc23)c(Cl)cc1Cl [Example 8, 4-[(2,4-Dichloro-5-methoxyphenyl)amino]-2-methylthieno[2,3-b]pyridine-5-carbonitrile]	179 to 181		inhibition at 10 µM [1, 2]: 33%
COc1cc(Nc2c(C#N)cnc3cc(C)sc23)c(Cl)cc1Cl [Example 9, 7-[(2,4-Dichloro-5-methoxyphenyl)amino]-2-methylthieno[3,2-b]pyridine-6-carbonitrile]	213 to 214	20	
N#Cc1cnc2ccsc2c1Nc1ccc(Cl)cc1Cl [Example 10, 7-[(2,4-Dichlorophenyl)amino]thieno[3,2-b]pyridine-6-carbonitrile]	198 to 200	39	
N#Cc1cnc2ccsc2c1Oc1ccc(Cl)cc1Cl [Example 11, 7-[(2,4-Dichlorophenoxy)]thieno[3,2-b]pyridine-6-carbonitrile]	158 to 160	23	
N#Cc1cnc2ccsc2c1Sc1ccc(Cl)cc1Cl [Example 12, 7-[(2,4-Dichlorophenyl)thio]thieno[3,2-b]pyridine-6-carbonitrile]	126 to 128		inhibition at 10 µM [1, 2]: 23%
N#Cc1cnc2ccsc2c1NCc1ccc(Cl)cc1Cl [Example 13, 7-[(2,4-Dichlorobenzyl)amino]thieno[3,2-b]pyridine-6-carbonitrile]	215 to 216		inhibition at 10 µM [1, 2]: 34%
COc1cc(Nc2c(C#N)cnc3cc(-c4ccc(C=O)cc4)sc23)c(Cl)cc1Cl [Example 14, 7-[(2,4-Dichloro-5-methoxyphenyl)amino]-2-(4-formylphenyl)thieno[3,2-b]pyridine-6-carbonitrile]	261 to 262	0.66	
COc1cc(Nc2c(C#N)cnc3cc(-c4ccc(CN5CCN(C)CC5)cc4)sc23)c(Cl)cc1Cl [Example 16, 7-[(2,4-Dichloro-5-methoxyphenyl)amino]-2-[4-(4-methylpiperazin-1-ylmethyl)phenyl]thieno[3,2-b]pyridine-6-carbonitrile]	226 to 228		
COc1cc(Nc2c(C#N)cnc3cc(-c4ccc(CN5CCCCC5)cc4)sc23)c(Cl)cc1Cl [Example 18, 7-[(2,4-Dichloro-5-methoxyphenyl)amino]-2-[4-(piperidin-1-ylmethyl)phenyl]thieno[3,2-b]pyridine-6-carbonitrile]	218 to 220	1	
COc1cc(Nc2c(C#N)cnc3cc(-c4ccc(C(=O)O)cc4)sc23)c(Cl)cc1Cl [Example 19, 4-{6-Cyano-7-[(2,4-dichloro-5-methoxyphenyl)amino]thieno[3,2-b]pyridine-2-yl]benzoic acid]	> 300	> 10	
COc1cc(Nc2c(C#N)cnc3cc(-c4ccc(C(N)=O)cc4)sc23)c(Cl)cc1Cl [Example 20, 4-{6-Cyano-7-[(2,4-dichloro-5-methoxyphenyl)amino]thieno[3,2-b]pyridine-2-yl}benzamide]	> 300	1	
COc1ccc(C#Cc2cc3ncc(C#N)c(Nc4cc(OC)c(Cl)cc4Cl)c3s2)cc1 [Example 21, 7-[(2,4-Dichloro-5-methoxyphenyl)amino]-2-[(4-methoxyphenyl)ethynyl]thieno[3,2-b]pyridine-6-carbonitrile]	249 to 250	32	

SMILES	melting point [°C]	IC50 ([1]; Rattus norvegicus, Table 1) [µM]	other results
COc1cc(Nc2c(C#N)cnc3cc(C#Cc4ccccn4)sc23)c(Cl)cc1Cl [Example 22, 7-[(2,4-Dichloro-5-methoxyphenyl)amino]-2-(pyridin-2-ylethynyl)thieno[3,2-b]pyridine-6-carbonitrile]	237 to 239	1	
COc1cc(Nc2c(C#N)cnc3cc(C#CCN(C)C)sc23)c(Cl)cc1Cl [Example 23, 7-[(2,4-Dichloro-5-methoxyphenyl)amino]-2-[3-(dimethylamino)prop-1-ynyl]thieno[3,2-b]pyridine-6-carbonitrile]	164 to 166	5.6	
COc1cc(Nc2c(C#N)cnc3cc(-c4cc5ccccc5o4)sc23)c(Cl)cc1Cl [Example 24, 2-(1-Benzofuran-2-yl)-7-[(2,4-dichloro-5-methoxyphenyl)amino]thieno[3,2-b]pyridine-6-carbonitrile]	281 to 282	3.8	
COc1cc(Nc2c(C#N)cnc3cc(-c4cccc(C=O)c4)sc23)c(Cl)cc1Cl [Example 25, 7-[(2,4-Dichloro-5-methoxyphenyl)amino]-2-(3-formylphenyl)thieno[3,2-b]pyridine-6-carbonitrile]	262 to 263	1.1	
COC(=O)CCCc1cc2c(Nc3cc(OC)c(OC)c(OC)c3)c(C#N)cnc2s1 [Example 29, 4-[5-Cyano-4-(3,4,5-trimethoxyphenylamino)-thieno[2,3-b]pyridin-2-yl]-butyric acid methyl ester]	101 to 103		
COc1cc(Nc2c(C#N)cnc3sc(CCCCN4CCOCC4)cc23)cc(OC)c1OC [Example 31, 2-[4-(4-Morpholinyl)butyl]-4-[(3,4,5-trimethoxyphenyl)amino]-thieno[2,3-b]pyridine-5-carbonitrile]		35	
COc1cc(Nc2c(C#N)cnc3cc(/C=C/C(=O)O)sc23)c(Cl)cc1Cl [Example 53, (2E)-3-(6-Cyano-7-[(2,4-dichloro-5-methoxyphenyl)amino]thieno[3,2-b]pyridin-2-yl)prop-2-enoate]			Src cells % inh at 100 μM ([1]; Table 1, at 100 μM): 45%
COc1cc(N(C(C)=O)c2c(C#N)cnc3ccsc23)c(Cl)cc1Cl [Example 63, N-(6-Cyanothieno[3,2-b]pyridin-7-yl)-N-(2,4-dichloro-5-methoxyphenyl)acetamide]	202 to 204		
COc1cc(Nc2c(C#N)cnc3cc(-c4ccsc4C=O)sc23)c(Cl)cc1Cl [Example 78, 7-[(2,4-dichloro-5-methoxyphenyl)amino]-2-(2-formylthien-3-yl)thieno[3,2-b]pyridine-6-carbonitrile]	128 to 130		
Cn1ccnc1Sc1ccc(Nc2c(C#N)cnc3cc(I)sc23)cc1Cl [Example 82, 7-({3-chloro-4-[(1-methyl-1H-imidazol-2-yl)thio]phenyl}amino)-2-iodothieno[3,2-b]pyridine-6-carbonitrile]	290 to 291		
Cn1ccnc1Sc1ccc(Nc2c(C#N)cnc3cc(-c4ccc(C=O)cc4)sc23)cc1Cl [Example 97, 7-({3-chloro-4-[(1-methyl-1H-imidazol-2-yl)thio]phenyl}amino)-2-(4-formylphenyl)thieno[3,2-b]pyridine-6-carbonitrile]	279 to 281		
N#Cc1cnc2cc(I)sc2c1Nc1ccc(Cl)cc1Cl [Example 102, 7-[(2,4-dichlorophenyl)amino]-2-iodothieno[3,2-b]pyridine-6-carbonitrile]	230 to 233		
CCOc1cc(Nc2c(C#N)cnc3cc(I)sc23)c(Cl)cc1Cl [Example 110, 7-[(2,4-dichloro-5-ethoxyphenyl)amino]-2-iodothieno[3,2-b]pyridine-6-carbonitrile]	232 to 233		
N#Cc1cnc2cc(-c3ccc(C=O)cc3)sc2c1Nc1ccc(Cl)cc1Cl [Example 115, 7-[(2,4-dichlorophenyl)amino]-2-(4-formylphenyl)thieno[3,2-b]pyridine-6-carbonitrile]	170 to 171		
CN(C)c1ccc(-c2cc3ncc(C#N)c(Nc4ccc(Cl)cc4Cl)c3s2)cc1 [Example 126, 7-[(2,4-dichlorophenyl)amino]-2-[4-(dimethylamino)phenyl]thieno[3,2-b]pyridine-6-carbonitrile]	239 to 241		
COc1cc(Nc2c(C#N)cnc3cc(-c4coc(C=O)c4)sc23)c(Cl)cc1Cl [Example 138, 7-[(2,4-dichloro-5-methoxyphenyl)amino]-2-(5-formyl-3-furyl)thieno[3,2-b]pyridine-6-carbonitrile]	223 to 224		
COc1cc(Nc2c(C#N)cnc3c(Br)csc23)c(Cl)cc1Cl [Example 139, 3-Bromo-7-[(2,4-dichloro-5-methoxyphenyl)amino]thieno[3,2-b]pyridine-6-carbonitrile]	265 to 266		

From patent US7276519B2, “Thieno[3,2-b]pyridine-6-carbonitriles and thieno[2,3-b]pyridine-5-carbonitriles as protein kinase inhibitors” (Wyeth, priority 2002, dated 2007)
